As usually defined, the IC50 is the concentration needed to halve the response being measured.

Among the data in patent US20250145606A1 (Arcus Biosciences, Inc., priority 2023, published 2025) are IC50 values, retold here.

Read-outs that look alike come from different tables or passages of the source.

In experiment [1] the test system is Phospho-KIT (Y703) in M07e cells. Description: Phospho-KIT (Y703) cellular assay in M07e cells. Format: cell-based. The note with it: M-07e, read-out: M07e Cell IC50. The essentials:
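Serum-starved M07e cells preincubated 50 min at 37° C with 11-point half-log compound titration, then stimulated 10 min with SCF at 90.9 ng/mL final. Fixed, permeabilized cells stained for phospho-KIT Y703 and read by flow cytometry (live-gated geometric mean); IC50 by 4-parameter fit normalized to DMSO and positive control.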

For a further experiment, the target named is c-Kit (Homo sapiens (Human), UniProt P10721). Description: Inhibition of c-Kit kinase activity (HTRF KinEASE-TK). Format: biochemical. The conditions noted are these: biochemical. The essentials: (§1)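 Human kinases were preincubated 1 h at rt with a 22-point 1:2 compound titration, then run 120 min at rt with biotinylated TK peptide and ATP (2× mix: c-Kit 16 μM, PDGFRα 1 μM, PDGFRβ 40 μM, CSF1R 20 μM). Phosphopeptide was read by HTRF TR-FRET (665/620 nm), and IC50s came from 4-parameter fits.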
In general terms: In TR-FRET formats the signal depends on donor and acceptor labels being close together.

The next experiment deals with PDGFRα (Homo sapiens (Human), UniProt P16234). Description: Inhibition of PDGFRα kinase activity (HTRF KinEASE-TK). The conditions noted are these: biochemical. The essentials: as §1
Setting [2] is: phospho-KIT (Y703), SCF-stimulated M07e cells.

c-Kit, sequence (P10721 26-976): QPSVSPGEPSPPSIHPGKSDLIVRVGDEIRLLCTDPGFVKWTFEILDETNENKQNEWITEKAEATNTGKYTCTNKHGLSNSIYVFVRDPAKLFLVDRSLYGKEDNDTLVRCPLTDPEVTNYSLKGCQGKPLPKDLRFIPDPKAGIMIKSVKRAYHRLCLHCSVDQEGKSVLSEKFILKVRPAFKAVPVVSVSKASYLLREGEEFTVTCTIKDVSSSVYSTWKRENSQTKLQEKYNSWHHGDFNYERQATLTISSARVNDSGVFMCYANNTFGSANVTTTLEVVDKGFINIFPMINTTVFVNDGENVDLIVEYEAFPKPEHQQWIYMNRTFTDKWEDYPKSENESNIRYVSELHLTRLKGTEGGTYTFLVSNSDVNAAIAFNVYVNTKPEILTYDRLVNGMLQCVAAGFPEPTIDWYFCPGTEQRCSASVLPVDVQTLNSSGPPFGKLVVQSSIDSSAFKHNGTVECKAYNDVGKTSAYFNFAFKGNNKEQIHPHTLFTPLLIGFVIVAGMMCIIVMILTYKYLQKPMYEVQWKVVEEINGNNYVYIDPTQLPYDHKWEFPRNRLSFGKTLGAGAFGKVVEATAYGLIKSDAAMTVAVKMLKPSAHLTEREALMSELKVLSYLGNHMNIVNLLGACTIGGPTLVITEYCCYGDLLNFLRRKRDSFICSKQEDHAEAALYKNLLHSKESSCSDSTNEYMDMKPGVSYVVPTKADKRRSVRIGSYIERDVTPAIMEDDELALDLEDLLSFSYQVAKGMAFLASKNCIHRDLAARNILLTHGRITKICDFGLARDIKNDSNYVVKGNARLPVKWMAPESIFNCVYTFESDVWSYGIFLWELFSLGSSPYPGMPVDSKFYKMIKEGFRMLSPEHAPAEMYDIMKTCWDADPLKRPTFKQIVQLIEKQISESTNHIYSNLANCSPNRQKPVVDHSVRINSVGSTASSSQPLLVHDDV
PDGFRα, sequence (P16234 24-1089): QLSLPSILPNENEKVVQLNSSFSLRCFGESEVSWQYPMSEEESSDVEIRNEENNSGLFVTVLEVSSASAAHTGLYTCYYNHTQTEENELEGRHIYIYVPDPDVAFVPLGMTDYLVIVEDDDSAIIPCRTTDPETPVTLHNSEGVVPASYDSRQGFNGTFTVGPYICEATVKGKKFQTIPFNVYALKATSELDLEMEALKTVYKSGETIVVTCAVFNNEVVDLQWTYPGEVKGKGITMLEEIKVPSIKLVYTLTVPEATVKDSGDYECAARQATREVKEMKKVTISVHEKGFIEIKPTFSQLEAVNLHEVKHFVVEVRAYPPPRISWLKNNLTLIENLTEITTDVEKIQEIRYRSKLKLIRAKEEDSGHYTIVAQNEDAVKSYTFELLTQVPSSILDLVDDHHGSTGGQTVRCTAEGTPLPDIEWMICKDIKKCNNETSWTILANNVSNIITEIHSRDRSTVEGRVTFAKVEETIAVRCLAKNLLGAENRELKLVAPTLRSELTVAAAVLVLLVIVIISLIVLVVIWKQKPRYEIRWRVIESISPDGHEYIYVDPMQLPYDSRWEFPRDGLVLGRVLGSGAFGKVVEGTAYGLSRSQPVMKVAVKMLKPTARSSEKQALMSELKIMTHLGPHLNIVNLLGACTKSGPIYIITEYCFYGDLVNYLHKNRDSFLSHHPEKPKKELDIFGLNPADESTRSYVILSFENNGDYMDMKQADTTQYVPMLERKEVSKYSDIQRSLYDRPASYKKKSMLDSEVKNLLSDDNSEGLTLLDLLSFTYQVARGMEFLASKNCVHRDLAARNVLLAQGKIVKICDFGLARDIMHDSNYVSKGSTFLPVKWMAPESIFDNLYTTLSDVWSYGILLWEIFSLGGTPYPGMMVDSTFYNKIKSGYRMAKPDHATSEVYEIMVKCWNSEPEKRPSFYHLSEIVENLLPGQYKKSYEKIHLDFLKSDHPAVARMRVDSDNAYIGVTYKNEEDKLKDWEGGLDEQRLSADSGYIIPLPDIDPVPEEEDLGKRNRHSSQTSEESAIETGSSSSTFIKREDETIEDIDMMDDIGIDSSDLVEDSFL

Take `Cc1ncc(C(=O)Nc2cc(C(=O)Nc3ccc(CC(F)(F)F)cn3)c(F)cc2C)s1` [Example 1, N-[4-Fluoro-2-methyl-5-[[5-(2,2,2-trifluoroethyl)pyridin-2-yl]carbamoyl]phenyl]-2-methyl-1,3-thiazole-5-carboxamide]: the IC50 in experiment [1] was under 100 nM; against c-Kit, under 100 nM; against PDGFRα, over 1000 nM.
With `Cc1ncc(C(=O)Nc2cc(C(=O)Nc3ccc(OC4CC4)cn3)c(F)cc2C)s1` [Example 2, N-[5-[(5-Cyclopropyloxypyridin-2-yl)carbamoyl]-4-fluoro-2-methylphenyl]-2-methyl-1,3-thiazole-5-carboxamide], the figures for the IC50 (in experiment [1] (setting [2]); on c-Kit; at PDGFRα) were under 100 nM, under 100 nM and over 1000 nM, respectively.
Turning to `Cc1ncc(C(=O)Nc2cc(C(=O)Nc3ccc(C4CC4)cn3)c(F)cc2C)s1` [Example 3, N-[5-[(5-Cyclopropylpyridin-2-yl)carbamoyl]-4-fluoro-2-methylphenyl]-2-methyl-1,3-thiazole-5-carboxamide], the IC50 was under 100 nM in experiment [1], under 100 nM at c-Kit and over 1000 nM on PDGFRα.
With `Cc1ncc(C(=O)Nc2cc(C(=O)Nc3cnc(OCC(C)(F)F)cn3)c(F)cc2C)s1` [Example 4, N-[5-[[5-(2,2-Difluoropropoxy)pyrazin-2-yl]carbamoyl]-4-fluoro-2-methylphenyl]-2-methyl-1,3-thiazole-5-carboxamide], the 50% inhibitory concentration (IC50) was under 100 nM in experiment [1] (setting [2]), under 100 nM against c-Kit and over 1000 nM at PDGFRα.
`Cc1ncc(C(=O)Nc2cc(C(=O)Nc3ccc(CC4CC4)cn3)c(F)cc2C)s1` [Example 5, N-[5-[[5-(Cyclopropylmethyl)pyridin-2-yl]carbamoyl]-4-fluoro-2-methylphenyl]-2-methyl-1,3-thiazole-5-carboxamide]: the IC50 is under 100 nM in experiment [1], under 100 nM against c-Kit and over 1000 nM at PDGFRα.
`Cc1ncc(C(=O)Nc2cc(C(=O)Nc3ccc(OC(F)F)cn3)c(F)cc2C)s1` [Example 38, N-[5-[[5-(difluoromethoxy)pyridin-2-yl]carbamoyl]-4-fluoro-2-methylphenyl]-2-methyl-1,3-thiazole-5-carboxamide]: the half-maximal inhibitory concentration (IC50) in experiment [1] (Phospho-KIT (Y703), M07e cells) is under 100 nM; against c-Kit (HTRF KinEASE-TK) it was under 100 nM; at PDGFRα (HTRF KinEASE-TK), over 1000 nM.
As to `Cc1ncc(C(=O)Nc2cc(C(=O)Nc3ccc(CC(F)(F)F)cn3)c(F)cc2Cl)s1` [Example 46, N-[2-chloro-4-fluoro-5-[[5-(2,2,2-trifluoroethyl)pyridin-2-yl]carbamoyl]phenyl]-2-methyl-1,3-thiazole-5-carboxamide], the half-maximal inhibitory concentration (IC50) was under 100 nM in experiment [1] (Phospho-KIT (Y703), M07e cells); under 100 nM on c-Kit (HTRF KinEASE-TK); over 1000 nM on PDGFRα (HTRF KinEASE-TK).
